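Grown in 96-well plates, cells were treated for 48 hours with each compound at five concentrations. Insufficient inhibition: endpoint recorded as highest concentration tested. GI50: concentration for 50% inhibition of growth.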 Calls of active or inactive are those of the source. No stated cut-off is given here; in the data, active = GI50 up to about 1.1 µM and inactive = higher.
What was measured:
Test in all cases: DTP human tumour cell line panel, 48 h
[1] = test system: HCC 2998
[2] = test system: NCI-H522
[3] = test system: T47D
[4] = test system: SF-268
[5] = test system: HOP-92
[6] = test system: OVCAR-3
[7] = test system: CAKI-1
[8] = test system: K562
[9] = test system: OVCAR-8
[10] = test system: DU-145
[11] = test system: RPMI-8226
[12] = test system: HT-29
[13] = test system: SK-OV-3
[14] = test system: SR
[15] = test system: EKVX
[16] = test system: UACC-257
[17] = test system: OVCAR-5
[18] = test system: SW-620
[19] = test system: SNB-19
[20] = test system: PC-3

Measured: GI50

CC(C)Oc1c(N(Cc2ccccc2)c2ccccc2C2SCCCS2)c(=O)c1=O
inactive: [1] 3.5 µM | [2] 1.88 µM | [3] 5.14 µM | [4] 5.96 µM | [5] 6.81 µM | [6] 2.33 µM | [7] 5.79 µM | [8] 4.05 µM | [9] 3.61 µM | [10] 4.18 µM | [11] 4.24 µM | [12] 2.52 µM | [13] 3.39 µM | [14] 2.79 µM | [15] 4.51 µM | [16] 6.9 µM | [17] 5.97 µM | [18] 2.71 µM | [19] 3.9 µM | [20] 3.29 µM

CC(=O)OC1COC(n2c(-c3ccc(Cl)cc3)cc(-c3ccccc3)c(C#N)c2=S)C(OC(C)=O)C1OC(C)=O (stereo not given)
inactive: [1] 31.6 µM | [2] 40.5 µM | [3] 14.1 µM | [4] 9.44 µM | [5] 12.9 µM | [6] 6.38 µM | [7] 19.7 µM | [8] 12.2 µM | [9] 5.06 µM | [10] 13.9 µM | [11] 29.9 µM | [12] 26.2 µM | [13] 28.2 µM | [14] 29.2 µM | [15] 58.5 µM | [16] 41.6 µM | [17] 32.7 µM | [18] 41.1 µM | [19] 31 µM | [20] 14.5 µM

CCOC(=O)C1=C(OS(=O)(=O)C(F)(F)F)CCCC1
inactive: [1] > 100 µM | [2] > 100 µM | [3] > 100 µM | [4] > 100 µM | [5] > 100 µM | [6] > 100 µM | [7] > 100 µM | [8] > 100 µM | [9] > 100 µM | [10] > 100 µM | [11] > 100 µM | [12] > 100 µM | [13] > 100 µM | [14] > 100 µM | [15] > 100 µM | [16] > 100 µM | [17] > 100 µM | [18] > 100 µM | [19] > 100 µM | [20] > 100 µM
